Measurements published in patent publication US8211856B2, “Use of somatostatin-14 as a therapeutic agent” (mondoBIOTECH Laboratories AG, priority 2007, dated 2012).
No end group written: not given here.

Experiments:
HIV-1IIIB = experiment: HIV-1 antiviral assay in CEM-SS cells; conditions: HIV-1 assay
HCMV strain AD169 = experiment: HCMV plaque formation assay in MRC-5 cells; format: cell-based; conditions: for inhibition of HCMV plaque formation as compared to the virus control experiment: 10 micrograms per ml, 7-10 days
[1] = system: hepatitis B virus (HBV) ayw strain; experiment: HBV experimental assay system (HepG2-2.2.15, TaqMan PCR of secreted HBV DNA); format: cell-based; conditions: 10 micrograms per ml; six days; HBV DNA in supernatant
Human A549 cells [2] = experiment: Apoptosis induction assay (Annexin-5); format: cell-based; conditions: 10 micrograms per ml; 24 hours
Human A549 cells [3] = experiment: Apoptosis prevention assay (C2 ceramide, Annexin-5); format: cell-based; conditions: 10 micrograms per ml; 30 min pretreatment, then C2 ceramide
Description: Human A549 cells (carcinomic human alveolar basal epithelial cells) were utilized in the experiments employing the Annexin-5 apoptosis assay. […] A549 cells were pretreated for 30 min with test peptides—10 micrograms per ml—followed by the exposure to C2 ceramide.

murine spleen cells = experiment: Th1/Th2 cytokine profiling assay (Ovalbumin-restimulated spleen cells); format: cell-based, Balb/c mice; conditions: 10 micrograms per ml; Ovalbumin restimulation, 72 hours
From the text: The Balb/c mice (originated in 1923, it is a popular strain and is used in many different research disciplines. Also classified as an inbred from the production of 20 or more successive brother-sister matings, the Balb/c mouse is albino and small in size) were immunized on Days 1, 15, and 29 with Ovalbumin (Ovalbumin is the main protein found in egg white, commonly used to stimulate an immunological reaction in test animals) in PBS (5 micrograms/injection). On day 50, spleens of the mice were harvested (3 weeks after last boost with Ovalbumin). […] Thereafter, additional Ovalbumin was added to the cells at 10 micrograms/ml for in vitro restimulation of the cells. 72 hours later, cell supernatants were harvested and assayed using the Becton Dickinson Mouse Th1/Th2 Cytokine CBA Kit.

[4] = system: Primary Human endothelial cells (HUVEC); experiment: Endothelial cell migration assay; format: cell-based; conditions: 10 micrograms per ml; 22 hours
HUVEC = experiment: Endothelial tube formation assay; format: cell-based, human; conditions: 10 micrograms per ml; 20 hours
From the text: Positive control was vehicle only.

Compound | antiviral activity of positive control compounds (HIV-1IIIB) | inhibition of HBV replication as compared to the virus control infection [1] | inhibition of HCMV plaque formation as compared to the virus control experiment (HCMV strain AD169) | induction of apoptosis on human lung cells (Human A549 cells [2]) | production of IL-2, induced by (murine spleen cells) | production of IL-4, induced by (murine spleen cells) | production of IL-5, decreased by (murine spleen cells) | production of TNF-alpha, induced by (murine spleen cells) | tube formation of human endothelial cells, inhibited by (HUVEC) | further results
Cc1cn([C@H]2C[C@H](N=[N+]=[N-])[C@@H](CO)O2)c(=O)[nH]c1=O [AZT] | expected levels of antiviral activity |  |  |  |  |  |  |  |  | 
Nc1nc(O)c2ncn(COC(CO)CO)c2n1 [Ganciclovir, reference compound] |  |  |  |  |  |  |  |  |  | antiviral activity of positive control compound (HCMV strain AD169; positive control, HCMV assay): expected levels of antiviral activity
CC(C)(C)NC(=O)[C@@H]1CN(Cc2cccnc2)CCN1C[C@@H](O)C[C@@H](Cc1ccccc1)C(=O)N[C@H]1c2ccccc2C[C@H]1O [indinavir] | expected levels of antiviral activity |  |  |  |  |  |  |  |  | 
Ala-Gly-Cys-Lys-Asn-Phe-Phe-Trp-Lys-Thr-Phe-Thr-Ser-Cys-OH (AGCKNFFWKTFTSC-OH; ends and bridges not checked) [Peptide 1] |  | 14.1% | 1.8% | 9.4% | 102.7% | did not significantly change | did not significantly change | 27.5% | 9% | induction of apoptosis on human lung cells (ceramide-induced apoptosis) (Human A549 cells [3]): 27%; production of IFN-gamma, induced by (murine spleen cells): 65.1%; migration of human endothelial cells, inhibited by [4]: 3%
Gly-Pro-Glu-OH [Peptide 2] |  | 30.7% | 2.9% | 1.4% | 24.0% | 52.7% | 37.2% | did not significantly change | 20% | production of IFN-gamma, decreased by (murine spleen cells): 42.5%; migration of human endothelial cells, induced by [4]: 11%
